From patent publication US11230525B2, “Organic sulfur compound, method for preparing same, and pharmaceutical composition for preventing or treating cancer or an inflammatory disease, containing same as active ingredient” (SOOKMYUNG WOMENS UNIVERSITY INDUSTRY-ACADEMIC COOPERATION …, priority 2016, dated 2022) come the findings set out here.

The test system of assay [1] is breast cancer cell line (MDA-MB-231). As to the kind of experiment: Cancer proliferation inhibitory activity (SRB, GI50), MDA-MB-231. The assay is classed as cell-based. To be noted: Homo sapiens, 48 hours. From the text: (§1) Particularly, the cancer proliferation inhibitory activity of the compounds of comparative examples (Ajoene and the compounds isosteric to Ajoene wherein R1 is allyl or benzyl) and the compounds of examples of the present invention (the compounds not isosteric to Ajoene wherein R^1 is phenyl) was investigated in human cancer cell lines (renal cancer cell line (ACHN), breast cancer cell line (MDA-MB-231), colorectal cancer cell line (HCT-15), prostate cancer cell line (PC-3), gastric cancer cell line (NUGC-3) and lung cancer cell line (NCl-H23)).
(§2) At this time, the cancer cell lines (renal cancer cell line (ACHN), breast cancer cell line (MDA-MB-231), colorectal cancer cell line (HCT-15), prostate cancer cell line (PC-3), gastric cancer cell line (NUGC-3) and lung cancer cell line (NCl-H23)) above were purchased from American Type Culture Collection (Manassas, Va., USA). Cells were cultured in RPMI 1640 supplemented with 10% fetal bovine serum, which were maintained 37° C. under 5% CO2 wet atmosphere. The cells were distributed in a 96-well plate, which was not treated (treated only with 0.1% DMSO) or treated with the compounds of examples of the present (0.1 μM to 10 μM). 48 hours later, the cells were fixed in 50% trichloroacetic acid, followed by staining with 1% acetic acid containing 0.4% sulphorodamine B dissolved therein. The non-conjugated dye was removed by washing with 1% acetic acid, and the protein conjugated dye was extracted with 10 mM Tris base (pH 10.5). Then, OD540 was measured with VersaMax microplate reader (Molecular devices, Sunnyvale, Calif., USA). GI50 was calculated by using GraphPad Prism software (GraphPad Software, Inc., San Diego, Calif., USA).
(§3) Based on the results obtained in experimental example 1-1 above, the derivatives wherein R^1 is phenyl were additionally synthesized. The cancer proliferation inhibitory activity of the derivatives was evaluated by the same manner as described in experimental example 1-1.

Assay [2] has as its system lung cancer cell line (NCl-H23). As to the kind of experiment: Cancer proliferation inhibitory activity (SRB, GI50), NCI-H23. The assay is classed as cell-based. To be noted: Homo sapiens, 48 hours.
Text: as §1, §2, §3

Assay [3] relates to colorectal cancer cell line (HCT-15). As to the kind of experiment: Cancer proliferation inhibitory activity (SRB, GI50), HCT-15. It counts as cell-based. To be noted: Homo sapiens, 48 hours.
Text: as §1, §2, §3

Assay [4] relates to prostate cancer cell line (PC-3). As to the kind of experiment: Cancer proliferation inhibitory activity (SRB, GI50), PC-3. The assay is classed as cell-based. As to conditions: Homo sapiens, 48 hours.
Text: as §1, §2, §3

Assay [5] deals with renal cancer cell line (ACHN). As to the kind of experiment: Cancer proliferation inhibitory activity (SRB, GI50), ACHN. As to conditions: Homo sapiens, 48 hours. It counts as cell-based.
Text: as §1, §2, §3

The next assay concerns the target T1, HDAC 8 (Homo sapiens, UniProt Q9BY41).
T1 sequence (Q9BY41 1-377): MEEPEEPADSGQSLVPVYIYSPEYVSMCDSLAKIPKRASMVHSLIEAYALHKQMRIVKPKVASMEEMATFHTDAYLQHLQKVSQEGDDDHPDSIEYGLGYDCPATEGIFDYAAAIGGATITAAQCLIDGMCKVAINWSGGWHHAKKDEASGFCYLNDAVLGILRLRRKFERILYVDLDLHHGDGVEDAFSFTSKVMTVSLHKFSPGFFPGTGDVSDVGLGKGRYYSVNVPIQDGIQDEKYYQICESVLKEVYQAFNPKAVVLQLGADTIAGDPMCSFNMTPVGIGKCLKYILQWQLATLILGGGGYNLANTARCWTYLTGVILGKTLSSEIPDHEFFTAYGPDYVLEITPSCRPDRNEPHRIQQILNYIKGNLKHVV
As to the kind of experiment: HDAC enzyme fluorescence assay, HDAC 8. The assay is classed as biochemical. The arrangement: Inhibitory activity (%) HDAC 8: concentration or dose not given beside the values. As to conditions: (HDAC inhibitory activity of example compound/HDAC inhibitory activity of SAHA) × 100. The method, then: Particularly, HDAC enzyme analysis was performed based on a uniform fluorescence emission assay. First, the compounds of examples of the present invention or comparative example 1 were diluted at different concentrations, which were treated to the analysis buffer containing 25 mM HEPES (pH 8.0), 137 mM NaCl, 1 mM MgCl2 and 2.7 mM KCL, followed by culture of the recombinant HDAC enzyme. 10 minutes later, Boc-Lys(acetyl)-AMC, the fluorescence inducing substrate, was added thereto, followed by further culture at 37° C. At this time, the concentration of the fluorescence inducing substrate and the culture time were adjusted according to the isotypes of the HDAC enzyme. The reaction was terminated by treating trypsin at room temperature for 20 minutes. The fluorescence intensity was measured using a fluorescence analyzer at an excitation wavelength of 380 nm and an emission wavelength of 460 nm, respectively. The inhibition rate was calculated from the measured fluorescence intensity of each well with comparing to that of the control well. IC50 of the compound was calculated by analyzing the dose-reaction inhibition curve.
The HDAC 8 inhibitory activity was presented as percentage of relative activity by the inhibitory activity of SAHA (Vorinostat) used as a reference compound.

For assay [6], the system named is gastric cancer cell line (NUGC-3). As to the kind of experiment: Cancer proliferation inhibitory activity (SRB, GI50), NUGC-3. The assay is classed as cell-based. As to conditions: Homo sapiens, 48 hours.
Text: as §1, §2, §3

Regarding `C=CCSS/C=C/C[S+]([O-])c1cccc(OC)c1` (centres unmarked) [Example 15, (E)-1-allyl-2-(3-(3-methoxyphenylsulfinyl)prop-1-enyl)disulfane], the GI50 (as a rule, the concentration at which growth is held to half of that of the control) in assay [1] amounted to 4.51 µM; in assay [2], 3.42 µM; in assay [3], 2.58 µM; in assay [4] it was 3.02 µM; in assay [5], 2.56 µM; in assay [6], 2.95 µM. Further, the “Inhibitory activity (%) HDAC 8” value on HDAC 8 is reported as 84.6%.

As for `COc1ccc([S+]([O-])C/C=C/SSCc2ccc(Cl)c(Cl)c2)cc1` (centres unmarked) [Example 37, (E)-1-(3,4-dichlorobenzyl)-2-(3-(4-methoxyphenylsulfinyl)prop-1-enyl)disulfane], the 50% growth inhibitory concentration (GI50) in assay [1] amounted to 4.19 µM; in assay [2] it was 3.09 µM; in assay [3], 3.32 µM; in assay [4] it was 5.17 µM; in assay [5], 3.75 µM; in assay [6], 5.48 µM. Moreover, at HDAC 8, the “Inhibitory activity (%) HDAC 8” value came to 106.1%.

As to `COc1cccc([S+]([O-])C/C=C/SSCc2ccc(Cl)cc2)c1` (centres unmarked) [Example 23, (E)-1-(4-chlorobenzyl)-2-(3-(3-methoxyphenylsulfinyl)prop-1-enyl)disulfane], the 50% growth inhibitory concentration (GI50) was found to be 3.12 µM in assay [1]; 4.85 µM in assay [2]; 4.37 µM in assay [3]; 3.76 µM in assay [4]; 5.47 µM in assay [5]; 5.92 µM in assay [6]. The “Inhibitory activity (%) HDAC 8” value at HDAC 8 was found to be 72.6%.

On to `COc1cccc([S+]([O-])C/C=C\SSCc2ccccc2)c1` (centres unmarked) [Example 20, (Z)-1-benzyl-2-(3-(3-methoxyphenylsulfinyl)prop-1-enyl)disulfane], for which the concentration for 50% growth inhibition (GI50) was determined as 4.34 µM in assay [1]; 3.46 µM in assay [2]; 2.6 µM in assay [3]; 2.96 µM in assay [4]; 3.72 µM in assay [5]; 3.78 µM in assay [6]. Also, the “Inhibitory activity (%) HDAC 8” value on HDAC 8 is on record as 114.3%.

Consider `[O-][S+](C/C=C/SSCc1ccccc1)c1ccccc1` (centres unmarked) [Example 5, (E)-1-benzyl-2-(3-(phenylsulfinyl)prop-1-enyl)disulfane], for which the 50% growth inhibitory concentration (GI50) in assay [1] amounted to 6.27 µM; in assay [2], 2.98 µM; in assay [3], 3.97 µM; in assay [4], 3.19 µM; in assay [5] it was 5.75 µM; in assay [6], 3.71 µM. Besides, at HDAC 8, the “Inhibitory activity (%) HDAC 8” value came to 88.6%.

Consider `COc1ccc([S+]([O-])C/C=C\SSCc2ccc(Cl)c(Cl)c2)cc1` (centres unmarked) [Example 38, (Z)-1-(3,4-dichlorobenzyl)-2-(3-(4-methoxyphenylsulfinyl)prop-1-enyl)disulfane], for which the GI50 came out at 2.07 µM in assay [1]; 3.33 µM in assay [2]; 7.18 µM in assay [3]; 4.36 µM in assay [4]; 5.19 µM in assay [5]; 4.61 µM in assay [6]. On HDAC 8, the “Inhibitory activity (%) HDAC 8” value is reported as 55.5%.

With `[O-][S+](C/C=C/SSCc1ccc(Cl)c(Cl)c1)c1ccccc1` (centres unmarked) [Example 13, (E)-1-(3,4-dichlorobenzyl)-2-(3-(phenylsulfinyl)prop-1-enyl)disulfane], the GI50 in assay [1] turned out to be 7.5 µM; in assay [2], 2.92 µM; in assay [3], 2.78 µM; in assay [4], 2.3 µM; in assay [5] it was 1.97 µM; in assay [6] it was 1.77 µM. For the same compound, the “Inhibitory activity (%) HDAC 8” value on HDAC 8 amounted to 76.6%.

For the compound `CCCSS/C=C/C[S+]([O-])c1cccc(OC)c1` (centres unmarked) [Example 17, (E)-1-(3-(3-methoxyphenylsulfinyl)prop-1-enyl)-2-propyldisulfane], the GI50 was determined as 1.38 µM in assay [1]; 1.58 µM in assay [2]; 2.17 µM in assay [3]; 1.99 µM in assay [4]; 1.57 µM in assay [5]; 1.59 µM in assay [6]. Moreover, at HDAC 8, the “Inhibitory activity (%) HDAC 8” value was determined as 78.4%.
